Experiments:
[1] = test system: renal blood flow and renal vascular resistances; experiment: Cardiovascular parameters (renal blood flow and renal vascular resistances) in anesthetized dogs, intraduodenal administration; format: in vivo, dog; conditions: for selectivity and duration of renal effect (in words) / duration of effects on renal blood flow and resistances: 5 mg/kg; for renal vasodilating effect (in words): comparison of N-methyldopamine 4-O-dihydrogenphosphate with N-methyldopamine
Protocol: The activity of N-methyldopamine 4-O-dihydrogenphosphate on cardiovascular parameters in anesthetized dogs was compared with that of N-methyldopamine; both compounds were administered by intraduodenal route.

[2] = test system: blood pressure; experiment: Blood pressure in spontaneous hypertensive rats, oral administration; format: in vivo, rat
From the text: N,N-di-n-propyldopamine 4-O-dihydrogenphosphate reduced blood pressure by 30-35% (p<0.01) when orally administered to spontaneous hypertensive rats at a dose of 0.29 mmoles/kg; the effect lasted five hours while N,N-di-n-propyl dopamine was ineffective at the same dosage and also at 0.58 mmoles/kg.

[3] = test system: urine excretion; experiment: Urine excretion in normally hydrated rats, oral administration; format: in vivo, rat; conditions: 0.29 mmoles/kg; for increase of urine excretion: p<0.05
From the text: These diuretic properties are useful in the therapy of hypertension and cardiac and renal failure.

[4] = anesthetized dogs, i.d., 0.005 mmoles/kg (1.25 mg/kg), n=6
[5] = anesthetized dogs, i.d., 0.04 mmoles/kg (10 mg/kg), n=7, **P <0.01
[6] = anesthetized dogs, i.d., 0.035 mmoles/kg (7.1 mg/kg), n=5

## N[C@@H](CCC(=O)NCCc1ccc(OP(=O)(O)O)c(O)c1)C(=O)O [N^5-[2-(3,4-dihydroxyphenyl)-ethyl]-L-glutamine 4-O-dihydrogenphosphate]
[1]
  selectivity and duration of renal effect (in words): selective and long lasting
[1]; 5 mg/kg (0.014 mmoles/kg)
  decrease in renal resistances: -18%
  increase in renal blood flow: +25%

## CCCN(CCC)CCc1ccc(OP(=O)(O)O)c(O)c1 [N,N-di-n-propyldopamine 4-O-dihydrogenphosphate]
[2]; 0.29 mmoles/kg
  duration of blood pressure reduction: five
[2]; 0.29 mmoles/kg, p<0.01
  reduction of blood pressure: 30-35%

## NCCc1ccc(OP(=O)(O)O)c(O)c1 [Dopamine 4-O-dihydrogenphosphate, dopamine 4-O-dihydrogenphosphate]
[1]
  selectivity and duration of renal effect (in words): selective and long lasting
[1]; 5 mg/kg (0.02 mmoles/kg)
  decrease in renal resistances: -15%
  increase in renal blood flow: +14.5%

## CCOP(=O)(O)Oc1ccc(CCNC)cc1O [N-methyldopamine 4-O-ethyl-hydrogenphosphate]
[1]
  duration of effects on renal blood flow and resistances: over 5 hours
[1]; 5 mg/kg (0.018 mmoles/kg)
  increase of renal blood flow: +46%
  reduction of renal resistances: -32%

## CNCCc1ccc(O)c(OP(=O)(O)O)c1 [N-methyldopamine 3-O-dihydrogenphosphate]
[3]
  increase of urine excretion: 180%

## CNCCc1ccc(OP(=O)(O)O)c(O)c1 [N-methyldopamine 4-O-dihydrogenphosphate]
[3]
  increase of urine excretion: 170%
[1]; anesthetized dogs, i.d.
  duration of renal vasodilating action: about four
  modification of other hemodynamic parameters: without any modification of other hemodynamic parameters
  renal vasodilating effect (in words): improved effectiveness, either in terms of activity or duration of action or selective renal vasodilating action
[1]; [4]
  Maximum percentage variation of renal blood flow: +14.2%
  Maximum percentage variation of renal vascular resistances: -11.2%
[1]; anesthetized dogs, i.d., 0.01 mmoles/kg (2.5 mg/kg), n=6
  Maximum percentage variation of renal vascular resistances: -14.1%
[1]; anesthetized dogs, i.d., 0.01 mmoles/kg (2.5 mg/kg), n=6, **P <0.01
  Maximum percentage variation of renal blood flow: +18.5%
[1]; anesthetized dogs, i.d., 0.02 mmoles/kg (5 mg/kg), n=7, **P <0.01
  Maximum percentage variation of renal blood flow: +36.4%
[1]; anesthetized dogs, i.d., 0.02 mmoles/kg (5 mg/kg), n=7, *P <0.05
  Maximum percentage variation of renal vascular resistances: -24.5%
[1]; [5]
  Maximum percentage variation of renal blood flow: +31.7%
  Maximum percentage variation of renal vascular resistances: -28.1%
[1]; i.d., compared with N-methyldopamine
  absorption: improved absorption

## CNCCc1ccc(OP(=O)(O)OC)c(O)c1 [N-methyldopamine 4-O-methylhydrogenphosphate]
[1]
  duration of effects on renal blood flow and resistances: over 5 hours
[1]; 5 mg/kg (0.019 mmole/kg)
  increase of renal blood flow: +26%
  reduction of renal resistances: -19%

## CNCCc1ccc(O)c(O)c1 [N-methyldopamine, reference compound]
[3]
  effect on urine excretion (in words): ineffective
[1]; anesthetized dogs, i.d.
  accompanying effect on blood pressure: undesired increase of blood pressure
  accompanying effect on the heart: stimulation of the heart
  duration of renal vasodilating action: two
  renal vasodilating effect (in words): smaller effect
[1]; [6]
  Maximum percentage variation of renal blood flow: +14.9%
  Maximum percentage variation of renal vascular resistances: -14%

## CCCN(CCC)CCc1ccc(O)c(O)c1 [N,N-di-n-propyl dopamine, N,N-di-n-propyldopamine, reference compound]
[2]; 0.29 mmoles/kg
  effect on blood pressure (in words): ineffective
[2]; 0.58 mmoles/kg
  effect on blood pressure (in words): ineffective

## NCCc1ccc(O)c(O)c1 [dopamine, 1-(3,4-dihydroxyphenyl)-2-amino-ethane, reference compound]
[1]; 10 mg/kg (0.053 mmoles/kg)
  effect on renal blood flow and renal resistances (in words): ineffective

Reference: patent publication US4673671A, “Method for improving the absorption and effectiveness of a catecholamine compound” (SIMES Societa Italiana Medicinali e Sintetici S.p.A., priority 1984, dated 1987)
